Laboratory results from publication PMC9942619, “Oseltamivir phosphate for suspension is bioequivalent to TAMIFLU in healthy volunteers: a randomized, open-label clinical study” (BMC Pharmacology & Toxicology, 2023).

Tests used:
[1] = Single-dose crossover pharmacokinetics of oseltamivir and oseltamivir carboxylate in plasma (HPLC-MS/MS, non-compartmental analysis); assay type: in vivo, healthy Chinese subjects; conditions: fed vs fasting; plasma analyte
Excerpt: This study was developed in healthy subjects in the fasting or postprandial state, using a single-dose, randomized, open-label, two-period, two-sequence, self-crossover design. It authorized by the Ethics Committee of the First Affiliated Hospital of Bengbu Medical College. The ethical approval process complies with the requirements of Good Clinical Practice (GCP), the Declaration of Helsinki and relevant Chinese laws and regulations. Registration number CTR20200764 at 26-Apr-2020. http://www.chinadrugtrials.org.cn/clinicaltrials.searchlist.dhtml.
According to "the Guiding Principles for Human Bioavailability and Bioequivalence test of Pharmaceutical Preparations (2015 Edition)", "the Guiding Principles for Human Bioequivalence Research of Chemical Drug Imitations with Pharmacokinetic Parameters as the End Point Evaluation Indicators", and recommended dose in Tamiflu® instructions, the single oral dose of 75 mg/12.5 mL was determined for the reference preparation and test preparation of this study. […] Assuming one-sided α = 0.05, β = 0.2, %CV of 31.87%, a mean ratio F between the test product and reference product of 1, and the bioequivalence interval of 80.00–125.00%, the sample size of the two-period, crossover study design is 35 cases, calculated by PASS software. […] The quantitative linear range of oseltamivir is 0.500–200 ng/mL, and the LLOQ is 0.500 ng/mL. The quantitative linear range of oseltamivir carboxylate is 4.00–800 ng/mL, and the LLOQ is 4.00 ng/mL.
Pharmacokinetic parameters of oseltamivir and oseltamivir carboxylate were calculated using Phoenix WinNonlin (Pharsight Corporation, 8.3.1) based on individual blood concentrations and sampling time (calculated by actual sampling time) using non-compartmental analysis (NCA), Cmax, Tmax, AUC0-t, AUC0-∞, t1/2, λz, as well as %AUCex for oseltamivir and oseltamivir carboxylate were included. […]

influenza pneumonia = system: influenza pneumonia; design: method as in PMID 33718494; conditions: early treatment compared with late treatment; cited from earlier work
[2] = design: method as in earlier work; conditions: used for sample size estimation; cited from earlier work
[3] = design: method as in doi:10.1002/14651858.CD008965.pub4, PMID 25640810, PMID 12908848; conditions: cited from earlier work

Compound | Cmax, AUC0-t under fed conditions [1] | change of AUC0-∞ after feeding [1] | reduction in ICU mortality (influenza pneumonia) | intra-individual coefficient of variation (%CV) of AUC [2] | intra-individual coefficient of variation (%CV) of Cmax [2] | incidence of other side effects (conjunctivitis, rhinorrhagia, allergy, cardiac arrhythmias, gastrointestinal bleeding, neuropsychiatric events etc.) [3] | incidence of nausea ([3]; most common side effects) | incidence of vomiting ([3]; most common side effects)
CCC(CC)O[C@@H]1C=C(C(=O)O)C[C@H](N)[C@H]1NC(C)=O [oseltamivir carboxylate] | lowered | decreases |  |  |  |  |  | 
CCOC(=O)C1=C[C@@H](OC(CC)CC)[C@H](NC(C)=O)[C@@H](N)C1 [oseltamivir] |  | increases | 33% | 7.24–7.35% | 21.16–31.87% |  |  | 
CCOC(=O)C1=C[C@@H](OC(CC)CC)[C@H](NC(C)=O)[C@@H](N)C1 [oseltamivir phosphate] |  |  |  |  |  | < 1% | 10% | 2–15%
